For assay [1], the system named is beet armyworm (Spodoptera exigua). The assay can be described thus: Insecticidal test on treated lepidopteran diet, beet armyworm. The assay is classed as in vivo. Particulars: 120 h, read-out: AVG LAPHEG 50 (percent control, beet army worm). The protocol:
(§1) The compounds identified in Table 1 were prepared according to the previous methods and were tested against beet armyworm and corn earworm as follows:
(§2) Insecticidal Test for Corn Earworm (Helicoverpa zea) and Beet Armyworm (Spodoptera exigua).
(§3) To prepare test solution, the test compound was formulated at 2000 ppm solution as 4 mg/2 mL of 9 acetone:1 tap water. 50 μL of the 2000 ppm (equivalent to 50 μg/cm^2 dose on diet surface area) test solution was pipetted upon the surface of 1 mL of lepidopteran diet (Southland Multi-Species Lepidopteran Diet) contained in each of eight wells per insect species (one well=1 replication). A second-instar corn earworm and beet armyworm was placed upon the treated diet in each well once the solvent had air-dried. Trays containing the treated diet and larvae were covered and then held in a growth chamber at 25° C., 50-55% RH, and 16 hr light:8 hr dark for 5 days. Observation were conducted 5 days after treatment and infestation. The number of dead insects of 8 per species per treatment was then determined and the results are given in Table 1 as a percent control at a dose of […].
(§4) Keys to the table: Mass spectral data were obtained using liquid chromatography mass spectroscopy (LC-MS). The masses are detected using electrospray ionization (ESI) and reported as Mol Ion (M+H, M−H); AVG LAPHEG 50 refers to activity against beet army worm (Spodoptera exigua) as defined above; AVG HELIZE 50 refers to activity against corn ear worm (Helicoverpa zea) as described above.

The subject of assay [2] is corn earworm (Helicoverpa zea). The assay can be described thus: Insecticidal test on treated lepidopteran diet, corn earworm. It is filed as in vivo. Particulars: 120 h, read-out: AVG HELIZE 50 (percent control, corn ear worm). On the procedure:
as §1, §2, §3, §4

The mark [3] stands for this setting: second-instar larvae on treated diet, 8 wells, dose of 50 mg/cm^2 [sic] (2000 ppm, 50 μL), dead insects counted 5 days after treatment.

Each structure is given as a SMILES string. Where two headings read alike, the source gives them in different places.

The results in this text go back to US8188273B2, “Insecticidal (1,3,5)-triazinyl phenyl hydrazones” (Dow AgroSciences, LLC., priority 2007, dated 2012).

`FC(F)(F)Oc1ccc(/C=N/Nc2nc(Nc3cccc(C(F)(F)F)c3)nc(N3CCOCC3)n2)cc1` [Compound 62]: the pest or weed control at 2000 µg/mL in assay [1] (setting [3]) and in assay [2] (setting [3]) was 100% in each case.

As for `FC(F)(F)COc1nc(N/N=C/c2cccc(Cl)c2)nc(Nc2ccc(OC(F)(F)F)cc2)n1` [Compound 27], the pest or weed control at 2000 µg/mL in assay [1] (setting [3]) and in assay [2] (setting [3]) was 100% each time.

As to `Fc1ccc(Nc2nc(NCc3ccncc3)nc(N/N=C/c3ccc(OC(F)(F)F)cc3)n2)cc1C(F)(F)F` [Compound 64], the pest or weed control at 2000 µg/mL in assay [1] (setting [3]) and in assay [2] (setting [3]) was 100% throughout.

Consider `CCOCCN(CCOCC)c1nc(N/N=C/c2ccc(OC(F)(F)F)cc2)nc(Nc2ccc(F)c(C(F)(F)F)c2)n1` [Compound 48], for which the results for the pest or weed control at 2000 µg/mL in assay [1] (setting [3]) and in assay [2] (setting [3]) were 13% and 0%, respectively.

As to `FC(F)(F)Oc1ccc(/C=N/Nc2nc(NCCN3CCOCC3)nc(Nc3ccc(OC(F)(F)F)cc3)n2)cc1` [Compound 21], the pest or weed control at 2000 µg/mL in assay [1] (setting [3]) and in assay [2] (setting [3]) was 100% throughout.

In the case of `Fc1ccc(Nc2nc(NCc3ccc(Cl)nc3)nc(N/N=C/c3cccc(Cl)c3)n2)cc1C(F)(F)F` [Compound 75], the pest or weed control at 2000 µg/mL in assay [1] (setting [3]) and in assay [2] (setting [3]) was 100% each time.

Consider `FC(F)(F)COc1nc(N/N=C/c2cccc(Br)c2)nc(Nc2ccc(OC(F)(F)F)cc2)n1` [Compound 29], for which the pest or weed control at 2000 µg/mL in assay [1] (setting [3]) and in assay [2] (setting [3]) was 100% in each case.

As for `Fc1ccc(Nc2nc(NCc3ccc(Cl)nc3)nc(N/N=C/c3ccc(Cl)c(Cl)c3)n2)cc1C(F)(F)F` [Compound 71], the pest or weed control at 2000 µg/mL in assay [1] (setting [3]) and in assay [2] (setting [3]) was 100% each time.

As for `Fc1ccc(Nc2nc(NCc3ccc(Cl)nc3)nc(N/N=C/c3cccc(Br)c3)n2)cc1C(F)(F)F` [Compound 70], the pest or weed control at 2000 µg/mL in assay [1] (setting [3]) and in assay [2] (setting [3]) was 100% throughout.

On to `Fc1ccc(Nc2nc(NCc3ccc(Cl)nc3)nc(N/N=C/c3ccc(C(F)(F)F)cc3)n2)cc1C(F)(F)F` [Compound 65], for which the pest or weed control at 2000 µg/mL in assay [1] (setting [3]) and in assay [2] (setting [3]) was 100% in each case.

As to `Fc1ccc(Nc2nc(N/N=C/c3cccc(OC(F)(F)C(F)F)c3)nc(N3CCOCC3)n2)cc1C(F)(F)F` [Compound 53], the pest or weed control at 2000 µg/mL in assay [1] (setting [3]) and in assay [2] (setting [3]) was 100% throughout.

In the case of `Fc1ccc(Nc2nc(NCc3ccc(C(F)(F)F)nc3)nc(N/N=C/c3ccc(OC(F)(F)F)cc3)n2)cc1C(F)(F)F` [Compound 77], the pest or weed control at 2000 µg/mL in assay [1] (setting [3]) and in assay [2] (setting [3]) was 100% throughout.

Turning to `CONc1nc(N/N=C/c2cccc(C(F)(F)F)c2)nc(Nc2ccc(OC(F)(F)F)cc2)n1` [Compound 58], the pest or weed control at 2000 µg/mL in assay [1] (setting [3]) and in assay [2] (setting [3]) was 100% each time.

For `CCOc1nc(N/N=C/c2ccc(OC(F)(F)F)cc2)nc(Nc2ccc(OC(F)(F)F)cc2)n1` [Compound 8], the pest or weed control at 2000 µg/mL in assay [1] (setting [3]) and in assay [2] (setting [3]) was 25% in each case.

`O=C1CN(c2nc(N/N=C/c3ccc(OC(F)(F)F)cc3)nc(Nc3ccc(OC(F)(F)F)cc3)n2)CCN1` [Compound 6]: the pest or weed control at 2000 µg/mL in assay [1] (setting [3]) and in assay [2] (setting [3]) was 100% throughout.

On to `O=C1CN(c2nc(N/N=C/c3cccc(C(F)(F)F)c3)nc(Nc3ccc(OC(F)(F)F)cc3)n2)CCN1` [Compound 7], for which the pest or weed control at 2000 µg/mL in assay [1] (setting [3]) and in assay [2] (setting [3]) was 100% in each case.

Regarding `Fc1ccc(Nc2ncnc(N/N=C/c3ccc(OC(F)(F)C(F)F)cc3)n2)cc1C(F)(F)F` [Compound 97], the pest or weed control at 2000 µg/mL in assay [1] (setting [3]) and in assay [2] (setting [3]) was 100% throughout.

As to `COCC(C)Nc1nc(N/N=C/c2ccc(OC(F)(F)F)cc2)nc(Nc2ccc(OC(F)(F)F)cc2)n1` (centres unmarked) [Compound 24], the pest or weed control at 2000 µg/mL in assay [1] (setting [3]) and in assay [2] (setting [3]) was 100% throughout.

For the compound `FC(F)(F)COc1nc(N/N=C/c2ccc(Br)cc2)nc(Nc2ccc(OC(F)(F)F)cc2)n1` [Compound 98], the pest or weed control at 2000 µg/mL in assay [1] (setting [3]) and in assay [2] (setting [3]) was 100% in each case.

As for `FCCOc1ccc(/C=N/Nc2nc(NCc3ccc(Cl)nc3)nc(Nc3ccc(F)c(C(F)(F)F)c3)n2)cc1` [Compound 95], the values for the pest or weed control at 2000 µg/mL in assay [1] and in assay [2] were 75% and 38%, respectively.

As to `FC(F)(F)COc1nc(N/N=C/c2ccccc2Br)nc(Nc2ccc(OC(F)(F)F)cc2)n1` [Compound 34], the pest or weed control at 2000 µg/mL in assay [1] (setting [3]) and in assay [2] (setting [3]) was 100% throughout.

In the case of `FC(F)(F)Oc1ccc(Nc2nc(N/N=C/c3cccc(Cl)c3)nc(N3CCOCC3)n2)cc1` [Compound 37], the values for the pest or weed control at 2000 µg/mL in assay [1] (setting [3]) and in assay [2] (setting [3]) were 75% and 100%, respectively.

With `FC(F)C(F)(F)Oc1cccc(Nc2nc(N/N=C/c3ccc(C(F)(F)F)cc3)nc(N3CCOCC3)n2)c1` [Compound 84], the figures for the pest or weed control at 2000 µg/mL in assay [1] (setting [3]) and in assay [2] (setting [3]) were 25% and 75%, respectively.

For the compound `FC(F)(F)COc1nc(N/N=C/c2ccccc2C(F)(F)F)nc(Nc2ccc(OC(F)(F)F)cc2)n1` [Compound 32], the pest or weed control at 2000 µg/mL in assay [1] (setting [3]) and in assay [2] (setting [3]) was 100% each time.

In the case of `CCOC(=O)CN(C)c1nc(N/N=C/c2ccc(OC(F)(F)F)cc2)nc(Nc2ccc(OC(F)(F)F)cc2)n1` [Compound 23], the pest or weed control at 2000 µg/mL in assay [1] (setting [3]) came out at 25%; in assay [2] (setting [3]), 0%.
